Source: US8921362B2, “6,7-dialkoxy quinazoline derivatives and methods of treating drug resistant and other tumors” (Natco Pharma Limited, priority 2008, dated 2014)

Assays:
Test in all cases: KinomeScan
Assay type in all cases: binding
Details in all cases: read-out: % Ctrl @ 10000 nM
PCTK3 = biological target: T1, PCTK3 (Homo sapiens, UniProt Q07002)
T1 construct: host or cells: E. coli host derived from BL21, infected with T7 phage
Description: (§1) Kinase assays: Assays were performed as described in Fabian et al. (2005) Nature Biotechnology, vol. 23, p. 329. Kinase-tagged T7 phage strains were grown in parallel in 24 or 96-well blocks in an E. coli host derived from the BL21 strain. E. coli were grown to log-phase and infected with T7 phage from a frozen stock (multiplicity of infection ˜0.1) and incubated with shaking at 32° C. until lysis (−90 minutes). The lysates were centrifuged and filtered to remove cell debris. […] The liganded beads were blocked with excess biotin and washed with blocking buffer (SeaBlock (Pierce), 1% BSA, 0.05% Tween 20, 1 mM DTT) to remove unbound ligand and to reduce non-specific phage binding.
(§2) Test compounds were prepared as 40× stocks in DMSO and diluted into the aqueous environment. 2.5% DMSO was added to control assays lacking a test compound. All reactions were performed in polystyrene 96-well plates that had been pretreated with blocking buffer in a final volume of 0.04 ml. […] The phage titer in the eluates was measured by quantitative PCR.

TYRO3 = biological target: T2, TYRO3 (Homo sapiens, UniProt Q06418)
T2 construct: host or cells: E. coli host derived from BL21, T7 phage
Description: as §1, §2

NEK9 = biological target: T3, NEK9 (Homo sapiens, UniProt Q8TD19)
T3 construct: host or cells: T7 phage grown in E. coli host derived from BL21
Description: as §1, §2

FLT4 = biological target: T4, FLT4 (Homo sapiens, UniProt P35916)
T4 construct: host or cells: T7 phage in E. coli host derived from BL21
Description: as §1, §2

PLK4 = biological target: T5, PLK4 (Homo sapiens, UniProt O00444)
T5 construct: host or cells: T7 phage in E. coli host derived from BL21
Description: as §1, §2

IKK-alpha = biological target: T6, IKK-alpha (Homo sapiens, UniProt O15111)
T6 construct: host or cells: T7 phage grown in E. coli host derived from BL21
Description: as §1, §2

AURKC = biological target: T7, AURKC (Homo sapiens, UniProt Q9UQB9)
T7 construct: host or cells: E. coli host derived from BL21
Description: as §1, §2

DAPK3 = biological target: T8, DAPK3 (Homo sapiens, UniProt O43293)
T8 construct: purchased Ambit Biosciences Corp (KinomeScan); host or cells: T7 phage in E. coli host derived from BL21
Description: as §1, §2

DCAMKL1 = biological target: T9, DCAMKL1 (Homo sapiens, UniProt O15075)
T9 construct: purchased Ambit Biosciences Corp (KinomeScan); host or cells: T7 phage in E. coli host derived from BL21
Description: as §1, §2

MAP3K3 = biological target: T10, MAP3K3 (Homo sapiens, UniProt Q99759)
T10 construct: host or cells: E. coli host derived from the BL21 strain, infected with T7 phage
Description: as §1, §2

LIMK2 = biological target: T11, LIMK2 (Homo sapiens, UniProt P53671)
T11 construct: host or cells: T7 phage grown in E. coli host derived from BL21
Description: as §1, §2

GCN2(Kin.Dom.2.S808G) = biological target: T12, GCN2(Kin.Dom.2.S808G) (Homo sapiens, UniProt Q9P2K8, S808G)
T12 construct: GCN2(KIN.DOM.2, S808G); host or cells: T7 phage in E. coli host derived from BL21
Description: as §1, §2

YES = biological target: T13, YES (Homo sapiens, UniProt P07947)
T13 construct: host or cells: E. coli host derived from BL21, T7 phage
Description: as §1, §2

CSK = biological target: T14, CSK (Homo sapiens, UniProt P41240)
T14 construct: host or cells: T7 phage in E. coli host derived from BL21
Description: as §1, §2

FLT3(D835H) = biological target: T15, FLT3(D835H) (Homo sapiens, UniProt P36888, D835H)
T15 construct: host or cells: T7 phage in E. coli host derived from BL21
Description: as §1, §2

MRCKA = biological target: T16, MRCKA (Homo sapiens, UniProt Q5VT25)
T16 construct: host or cells: T7 phage grown in E. coli host derived from BL21
Description: as §1, §2

MYLK2 = biological target: T17, MYLK2 (Homo sapiens, UniProt Q9H1R3)
T17 construct: host or cells: T7 phage grown in E. coli host derived from BL21
Description: as §1, §2

MAP4K4 = biological target: T18, MAP4K4 (Homo sapiens, UniProt O95819)
T18 construct: host or cells: E. coli host derived from the BL21 strain, infected with T7 phage
Description: as §1, §2

PRKD2 = biological target: T19, PRKD2 (Homo sapiens, UniProt Q9BZL6)
T19 construct: host or cells: T7 phage in E. coli host derived from BL21
Description: as §1, §2

HIPK1 = biological target: T20, HIPK1 (Homo sapiens, UniProt Q86Z02)
T20 construct: host or cells: T7 phage in E. coli host derived from BL21
Description: as §1, §2

EPHB1 = biological target: T21, EPHB1 (Homo sapiens, UniProt P54762)
T21 construct: purchased Ambit Biosciences Corp; host or cells: T7 phage in E. coli host derived from BL21
Description: as §1, §2

AKT2 = biological target: T22, AKT2 (Homo sapiens, UniProt P31751)
T22 construct: host or cells: E. coli (BL21-derived), T7 phage lysate
Description: as §1, §2

YSK1 = biological target: T23, YSK1 (Homo sapiens, UniProt O00506)
T23 construct: host or cells: T7 phage grown in an E. coli host derived from BL21
Description: as §1, §2

ABL1(E255K) = biological target: T24, ABL1(E255K) (Homo sapiens, UniProt P00519, E255K)
T24 construct: host or cells: E. coli (BL21-derived), T7 phage lysate
Description: as §1, §2

EPHA4 = biological target: T25, EPHA4 (Homo sapiens, UniProt P54764)
T25 construct: purchased Ambit Biosciences Corp; host or cells: T7 phage in E. coli host derived from BL21
Description: as §1, §2

CDK3 = biological target: T26, CDK3 (Homo sapiens, UniProt Q00526)
T26 construct: host or cells: T7 phage in E. coli host derived from BL21
Description: as §1, §2

PKMYT1 = biological target: T27, PKMYT1 (Homo sapiens, UniProt Q99640)
T27 construct: host or cells: T7 phage in E. coli host derived from BL21
Description: as §1, §2

DMPK = biological target: T28, DMPK (Homo sapiens, UniProt Q09013)
T28 construct: purchased Ambit Biosciences Corp (KinomeScan); host or cells: T7 phage in E. coli host derived from BL21
Description: as §1, §2

EGFR(E746-A750del) = biological target: T29, EGFR(E746-A750del) (Homo sapiens, UniProt P00533, DEL746-750)
T29 construct: purchased Ambit Biosciences Corp (KinomeScan); host or cells: T7 phage in E. coli host derived from BL21
Description: as §1, §2

BRSK2 = biological target: T30, BRSK2 (Homo sapiens, UniProt Q8IWQ3)
T30 construct: host or cells: E. coli host derived from BL21
Description: as §1, §2

LYN = biological target: T31, LYN (Homo sapiens, UniProt P07948)
T31 construct: host or cells: E. coli host derived from the BL21 strain, infected with T7 phage
Description: as §1, §2

LATS1 = biological target: T32, LATS1 (Homo sapiens, UniProt O95835)
T32 construct: host or cells: T7 phage grown in E. coli host derived from BL21
Description: as §1, §2

BLK = biological target: T33, BLK (Homo sapiens, UniProt P51451)
T33 construct: host or cells: E. coli host derived from BL21
Description: as §1, §2

T12 sequence (Q9P2K8 590-1001 S808G limits assumed): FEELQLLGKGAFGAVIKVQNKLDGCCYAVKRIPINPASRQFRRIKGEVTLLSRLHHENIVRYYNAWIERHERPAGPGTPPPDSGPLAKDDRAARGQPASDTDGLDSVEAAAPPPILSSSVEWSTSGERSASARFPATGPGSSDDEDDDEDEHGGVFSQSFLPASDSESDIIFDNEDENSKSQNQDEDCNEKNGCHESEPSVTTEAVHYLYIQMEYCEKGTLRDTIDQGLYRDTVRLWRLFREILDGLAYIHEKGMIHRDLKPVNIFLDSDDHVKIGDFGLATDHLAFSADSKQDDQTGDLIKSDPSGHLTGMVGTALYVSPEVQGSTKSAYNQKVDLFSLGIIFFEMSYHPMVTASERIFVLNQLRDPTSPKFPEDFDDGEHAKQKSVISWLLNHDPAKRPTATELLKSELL
T4 sequence (P35916 25-1363): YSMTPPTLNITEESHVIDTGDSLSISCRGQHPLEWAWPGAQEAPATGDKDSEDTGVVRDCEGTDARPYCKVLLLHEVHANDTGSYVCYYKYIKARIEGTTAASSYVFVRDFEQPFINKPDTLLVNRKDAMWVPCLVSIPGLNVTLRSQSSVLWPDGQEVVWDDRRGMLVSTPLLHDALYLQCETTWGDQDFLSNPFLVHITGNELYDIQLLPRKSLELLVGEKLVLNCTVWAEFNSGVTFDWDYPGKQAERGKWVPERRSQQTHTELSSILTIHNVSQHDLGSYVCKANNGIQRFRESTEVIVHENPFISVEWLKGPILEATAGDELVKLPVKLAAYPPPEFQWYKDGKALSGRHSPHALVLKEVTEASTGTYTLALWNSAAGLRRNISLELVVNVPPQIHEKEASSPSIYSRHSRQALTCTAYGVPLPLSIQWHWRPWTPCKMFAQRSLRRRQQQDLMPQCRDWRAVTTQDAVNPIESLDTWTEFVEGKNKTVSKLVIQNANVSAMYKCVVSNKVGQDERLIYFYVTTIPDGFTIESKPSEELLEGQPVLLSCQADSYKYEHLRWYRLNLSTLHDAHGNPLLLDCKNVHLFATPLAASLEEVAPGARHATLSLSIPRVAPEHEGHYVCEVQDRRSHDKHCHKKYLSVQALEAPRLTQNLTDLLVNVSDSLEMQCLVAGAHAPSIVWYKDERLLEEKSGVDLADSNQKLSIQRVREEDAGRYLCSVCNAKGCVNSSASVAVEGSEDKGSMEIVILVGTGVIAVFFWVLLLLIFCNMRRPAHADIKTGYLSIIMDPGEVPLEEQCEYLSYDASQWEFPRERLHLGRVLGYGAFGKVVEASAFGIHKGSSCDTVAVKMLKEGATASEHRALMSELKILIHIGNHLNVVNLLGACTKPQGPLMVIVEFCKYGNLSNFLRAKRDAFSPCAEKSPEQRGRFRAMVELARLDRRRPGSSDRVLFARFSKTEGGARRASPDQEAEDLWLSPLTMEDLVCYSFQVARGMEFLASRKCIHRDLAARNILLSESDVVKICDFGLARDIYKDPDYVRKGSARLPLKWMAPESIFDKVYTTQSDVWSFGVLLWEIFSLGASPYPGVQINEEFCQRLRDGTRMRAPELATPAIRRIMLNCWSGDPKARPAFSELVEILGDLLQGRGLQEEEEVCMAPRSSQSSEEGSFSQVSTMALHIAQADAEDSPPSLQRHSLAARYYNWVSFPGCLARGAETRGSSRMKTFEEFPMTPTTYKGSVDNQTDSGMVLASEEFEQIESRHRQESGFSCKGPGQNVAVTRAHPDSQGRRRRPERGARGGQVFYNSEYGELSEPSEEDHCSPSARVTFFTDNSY
T2 sequence (Q06418 41-890): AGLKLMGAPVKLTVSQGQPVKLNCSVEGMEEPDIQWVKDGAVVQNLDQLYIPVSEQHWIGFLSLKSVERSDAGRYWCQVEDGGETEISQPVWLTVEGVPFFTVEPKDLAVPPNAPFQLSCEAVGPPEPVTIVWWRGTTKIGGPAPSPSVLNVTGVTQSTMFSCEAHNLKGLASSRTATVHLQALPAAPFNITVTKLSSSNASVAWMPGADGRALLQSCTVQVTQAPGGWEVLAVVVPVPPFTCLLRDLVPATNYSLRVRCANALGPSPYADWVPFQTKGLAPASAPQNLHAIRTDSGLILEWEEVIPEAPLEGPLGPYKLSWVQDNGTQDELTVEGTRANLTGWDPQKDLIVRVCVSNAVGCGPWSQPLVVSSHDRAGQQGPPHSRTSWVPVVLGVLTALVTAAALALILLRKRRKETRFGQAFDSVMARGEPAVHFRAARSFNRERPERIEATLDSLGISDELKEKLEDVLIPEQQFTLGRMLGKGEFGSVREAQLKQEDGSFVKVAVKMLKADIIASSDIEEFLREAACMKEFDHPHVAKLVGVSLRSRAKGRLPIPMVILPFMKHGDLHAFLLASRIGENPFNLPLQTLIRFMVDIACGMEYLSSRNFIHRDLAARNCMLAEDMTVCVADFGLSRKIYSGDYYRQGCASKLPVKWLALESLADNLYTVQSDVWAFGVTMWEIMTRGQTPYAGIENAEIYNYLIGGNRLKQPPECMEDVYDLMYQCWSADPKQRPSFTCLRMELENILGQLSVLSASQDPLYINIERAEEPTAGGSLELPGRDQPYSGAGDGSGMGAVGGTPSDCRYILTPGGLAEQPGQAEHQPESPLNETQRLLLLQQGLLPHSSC
T5 sequence (O00444 whole entry): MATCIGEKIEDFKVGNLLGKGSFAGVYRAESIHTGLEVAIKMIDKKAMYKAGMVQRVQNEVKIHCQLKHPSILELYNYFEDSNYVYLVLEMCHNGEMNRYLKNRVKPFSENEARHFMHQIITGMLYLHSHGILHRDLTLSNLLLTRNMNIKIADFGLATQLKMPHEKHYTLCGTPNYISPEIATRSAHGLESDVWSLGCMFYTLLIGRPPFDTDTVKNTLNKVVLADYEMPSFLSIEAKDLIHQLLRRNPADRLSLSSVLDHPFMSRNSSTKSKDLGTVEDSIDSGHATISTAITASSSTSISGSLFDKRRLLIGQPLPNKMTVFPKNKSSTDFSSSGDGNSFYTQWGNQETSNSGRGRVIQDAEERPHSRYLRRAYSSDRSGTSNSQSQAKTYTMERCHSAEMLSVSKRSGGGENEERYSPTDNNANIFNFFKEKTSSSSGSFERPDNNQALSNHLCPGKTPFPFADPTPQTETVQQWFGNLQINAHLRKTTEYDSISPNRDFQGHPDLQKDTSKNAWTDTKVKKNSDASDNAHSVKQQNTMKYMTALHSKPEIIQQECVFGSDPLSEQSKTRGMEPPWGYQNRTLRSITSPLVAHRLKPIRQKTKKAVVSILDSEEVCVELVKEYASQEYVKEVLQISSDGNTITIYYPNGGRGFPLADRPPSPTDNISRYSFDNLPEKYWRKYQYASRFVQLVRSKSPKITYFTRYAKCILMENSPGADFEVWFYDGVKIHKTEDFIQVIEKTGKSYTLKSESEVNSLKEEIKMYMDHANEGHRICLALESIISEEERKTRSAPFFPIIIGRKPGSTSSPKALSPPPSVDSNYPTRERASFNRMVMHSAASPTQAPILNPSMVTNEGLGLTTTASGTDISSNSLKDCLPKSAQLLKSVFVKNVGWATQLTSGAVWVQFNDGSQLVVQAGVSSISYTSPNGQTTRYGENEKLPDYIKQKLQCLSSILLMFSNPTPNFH
T20 sequence (Q86Z02 whole entry): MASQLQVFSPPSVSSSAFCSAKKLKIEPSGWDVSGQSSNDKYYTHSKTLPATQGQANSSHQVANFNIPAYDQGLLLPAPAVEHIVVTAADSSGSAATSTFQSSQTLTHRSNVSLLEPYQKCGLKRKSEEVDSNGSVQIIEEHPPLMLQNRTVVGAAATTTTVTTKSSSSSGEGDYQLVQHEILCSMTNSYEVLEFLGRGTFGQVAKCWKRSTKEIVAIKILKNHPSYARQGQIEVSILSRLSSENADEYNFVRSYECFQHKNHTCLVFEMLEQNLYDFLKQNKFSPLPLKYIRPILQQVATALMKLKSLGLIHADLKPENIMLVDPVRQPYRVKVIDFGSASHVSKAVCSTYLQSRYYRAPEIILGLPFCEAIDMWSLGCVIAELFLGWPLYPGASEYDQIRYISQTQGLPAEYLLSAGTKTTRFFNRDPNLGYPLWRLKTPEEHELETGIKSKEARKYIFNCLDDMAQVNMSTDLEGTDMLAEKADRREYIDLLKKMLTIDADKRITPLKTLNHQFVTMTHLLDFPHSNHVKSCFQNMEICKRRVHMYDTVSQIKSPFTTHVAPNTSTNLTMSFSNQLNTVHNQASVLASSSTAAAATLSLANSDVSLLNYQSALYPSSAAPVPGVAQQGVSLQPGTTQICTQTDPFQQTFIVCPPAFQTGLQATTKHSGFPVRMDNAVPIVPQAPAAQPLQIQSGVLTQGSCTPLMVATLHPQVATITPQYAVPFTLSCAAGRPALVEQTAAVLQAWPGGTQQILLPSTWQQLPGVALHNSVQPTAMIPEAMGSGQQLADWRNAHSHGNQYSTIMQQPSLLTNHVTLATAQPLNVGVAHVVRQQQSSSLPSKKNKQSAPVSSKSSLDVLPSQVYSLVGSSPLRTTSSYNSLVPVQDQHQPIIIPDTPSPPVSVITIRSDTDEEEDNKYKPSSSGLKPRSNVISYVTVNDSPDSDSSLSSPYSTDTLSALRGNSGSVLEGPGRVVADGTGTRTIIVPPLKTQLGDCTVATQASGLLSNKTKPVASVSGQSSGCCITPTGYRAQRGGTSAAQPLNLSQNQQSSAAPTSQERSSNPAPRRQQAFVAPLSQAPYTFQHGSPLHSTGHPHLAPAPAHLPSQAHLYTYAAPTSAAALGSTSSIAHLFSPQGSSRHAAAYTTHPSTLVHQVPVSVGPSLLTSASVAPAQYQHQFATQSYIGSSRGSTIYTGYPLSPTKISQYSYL
T7 sequence (Q9UQB9 whole entry): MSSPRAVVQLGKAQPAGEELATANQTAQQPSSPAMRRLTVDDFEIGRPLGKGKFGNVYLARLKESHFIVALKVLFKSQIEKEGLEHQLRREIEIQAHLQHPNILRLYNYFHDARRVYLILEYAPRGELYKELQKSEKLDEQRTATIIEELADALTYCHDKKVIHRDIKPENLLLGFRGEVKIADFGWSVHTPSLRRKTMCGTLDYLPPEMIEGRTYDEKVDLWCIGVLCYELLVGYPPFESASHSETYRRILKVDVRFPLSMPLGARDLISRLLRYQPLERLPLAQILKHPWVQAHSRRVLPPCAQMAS

Structure (SMILES): C#Cc1cccc(Nc2ncnc3cc(OC)c(OCCCN4CCOCC4)cc23)c1 [NRC-2694, N-(3-ethynylphenyl)-7-methoxy-6-[3-(4-morpholinyl)propoxy]-4-quinazolinamine]
- remaining binding at 10 µM (PCTK3): 82%
- remaining binding at 10 µM (TYRO3): 42%
- remaining binding at 10 µM (NEK9): 85%
- remaining binding at 10 µM (FLT4): 66%
- remaining binding at 10 µM (PLK4): 70%
- remaining binding at 10 µM (IKK-alpha): 41%
- remaining binding at 10 µM (AURKC): 47%
- remaining binding at 10 µM (DAPK3): 34%
- remaining binding at 10 µM (DCAMKL1): 92%
- remaining binding at 10 µM (MAP3K3): 5.9%
- remaining binding at 10 µM (LIMK2): 100%
- remaining binding at 10 µM (GCN2(Kin.Dom.2.S808G)): 12%
- remaining binding at 10 µM (YES): 41%
- remaining binding at 10 µM (CSK): 53%
- remaining binding at 10 µM (FLT3(D835H)): 8.1%
- remaining binding at 10 µM (MRCKA): 81%
- remaining binding at 10 µM (MYLK2): 4.8%
- remaining binding at 10 µM (MAP4K4): 20%
- remaining binding at 10 µM (PRKD2): 0.4%
- remaining binding at 10 µM (HIPK1): 70%
- remaining binding at 10 µM (EPHB1): 72%
- remaining binding at 10 µM (AKT2): 100%
- remaining binding at 10 µM (YSK1): 69%
- remaining binding at 10 µM (ABL1(E255K)): 80%
- remaining binding at 10 µM (EPHA4): 64%
- remaining binding at 10 µM (CDK3): 91%
- remaining binding at 10 µM (PKMYT1): 74%
- remaining binding at 10 µM (DMPK): 6.8%
- remaining binding at 10 µM (EGFR(E746-A750del)): 0%
- remaining binding at 10 µM (BRSK2): 33%
- remaining binding at 10 µM (LYN): 13%
- remaining binding at 10 µM (LATS1): 91%
- remaining binding at 10 µM (BLK): 4.4%
